Target: T1, VEGFR-2 (Homo sapiens, UniProt P35968)
T1 construct: gene KDR
Assay: SPR with VEGFR-2 immobilized on sensor chip, compound […]
Type: binding

T1 sequence (P35968 20-1356): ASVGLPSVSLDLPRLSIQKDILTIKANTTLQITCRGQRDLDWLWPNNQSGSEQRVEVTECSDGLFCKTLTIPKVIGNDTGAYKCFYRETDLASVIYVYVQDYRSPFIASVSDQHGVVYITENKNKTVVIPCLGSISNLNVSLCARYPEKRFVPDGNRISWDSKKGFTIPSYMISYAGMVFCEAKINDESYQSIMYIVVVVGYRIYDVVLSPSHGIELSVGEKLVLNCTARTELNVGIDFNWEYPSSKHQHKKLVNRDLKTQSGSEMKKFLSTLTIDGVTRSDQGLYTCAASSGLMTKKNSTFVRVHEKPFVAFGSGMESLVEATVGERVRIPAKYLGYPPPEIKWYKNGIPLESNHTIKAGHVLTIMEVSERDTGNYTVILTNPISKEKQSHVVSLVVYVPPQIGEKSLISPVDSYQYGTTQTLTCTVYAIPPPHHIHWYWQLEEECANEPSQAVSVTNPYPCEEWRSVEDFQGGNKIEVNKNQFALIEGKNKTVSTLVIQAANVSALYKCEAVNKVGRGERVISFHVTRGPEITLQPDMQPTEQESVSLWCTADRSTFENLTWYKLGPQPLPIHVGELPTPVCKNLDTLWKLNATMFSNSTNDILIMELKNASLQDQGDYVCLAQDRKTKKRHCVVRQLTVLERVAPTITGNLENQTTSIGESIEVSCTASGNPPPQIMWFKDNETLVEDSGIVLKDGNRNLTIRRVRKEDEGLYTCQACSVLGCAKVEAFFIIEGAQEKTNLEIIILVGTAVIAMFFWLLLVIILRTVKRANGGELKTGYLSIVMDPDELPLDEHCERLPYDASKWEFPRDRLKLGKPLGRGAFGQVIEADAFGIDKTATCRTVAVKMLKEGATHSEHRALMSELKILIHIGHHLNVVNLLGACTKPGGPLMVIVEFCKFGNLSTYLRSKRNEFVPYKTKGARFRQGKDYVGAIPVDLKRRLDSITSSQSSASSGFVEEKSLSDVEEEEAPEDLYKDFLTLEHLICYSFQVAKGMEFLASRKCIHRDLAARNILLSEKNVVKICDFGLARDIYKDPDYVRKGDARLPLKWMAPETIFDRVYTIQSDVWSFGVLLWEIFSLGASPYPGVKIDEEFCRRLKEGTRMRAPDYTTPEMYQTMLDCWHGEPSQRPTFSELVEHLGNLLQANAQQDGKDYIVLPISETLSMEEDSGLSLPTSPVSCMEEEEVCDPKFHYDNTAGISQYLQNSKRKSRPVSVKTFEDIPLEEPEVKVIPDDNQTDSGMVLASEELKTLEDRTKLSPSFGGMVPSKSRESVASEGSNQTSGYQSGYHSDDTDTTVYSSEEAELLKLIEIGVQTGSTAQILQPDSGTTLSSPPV

## CC1=C(C)C2=CC(=O)c3c(c(O)c4occ(C)c4c3O)C2(C)CC1 (stereo not shown) [ajuforrestin A]
  Kd: 45 µM

From PMC12383317, “Ajuforrestin A Inhibits Tumor Proliferation and Migration by Targeting the STAT3/FAK Signaling Pathways and VEGFR-2” (Biology, 2025)
